Measured values from patent US7417109B2, “Polymers for delivering nitric oxide in vivo” (Duke University, priority 1996, dated 2008).

Key:
[1] = Half-life and NO delivery in physiological solution (NO by method of Saville); assay type: physicochemical
Method: In addition, the half-lives for these compositions in physiological solution were measured. The half-life is time required for the composition to lose one half of its bound NO. The amount of NO in the composition is determined by the method of Saville, as described in Example 13.
The concentration of R—S—NO groups in a sample is based on the method reported in Saville, Analyst 83:620 (1958). By this method, R—S—NO groups are converted into an azo dye. The concentration of this dye is determined by measuring the absorbance at 540 nm (ε˜50,000 M^−1 cm^−1). The procedure is as follows:
A given volume (50 μl−1 m) of the sample to be assayed is added to an equivalent volume of solution A and solution B. The two samples are set aside for 5 minutes to allow formation of the diazonium salt, after which an equivalent volume of solution C is added to each mixture. Color formation, indicative of the azo dye product, is usually complete by 5 minutes. The sample absorbance is then read spectrophotometrically at 540 nm. The RSNO is quantified as the difference in absorbance between solution B and A. (i.e. B−A). In the event that the background nitrite concentration is high (i.e. increased background in A), the accuracy of the measurement can be increased by the addition of an equivalent volume of 0.5% ammonium sulfamate in acid (45 mM) 5 minutes prior to the addition of sulfanilamide. […]

[2] = cited from earlier work

| time able to deliver NO [1] | Structure (SMILES) | lifetime in physiological solution [2] |
| --- | --- | --- |
| no more than one | CC(C)(SN=O)[C@H](N)C(=O)O [S-nitroso-penicillamine] |  |
|  | N[C@@H](CSN=O)C(=O)O [S-nitrosocysteine] | no more than about an hour |
|  | CC(C)(SN=O)C(N)C(=O)O (racemic) [S-nitroso-D,L-penicillamine] | no more than about an hour |
